In patent US20250326792A1, “A FORMULATION FOR TREATMENT OF PIGMENTARY DISORDERS” (priority 2022, published 2025):

Assays:
[1] = system: Tyrosinase; experiment: Tyrosinase activity assay (L-DOPA) in B16F10 cells; format: cell-based; details: for increase in Tyrosinase activity when compared to control: B16F10 cells, positive control
Protocol: (§1) Culture and maintenance of cell lines: B16F10 cells were cultured in RPMI containing 10% fetal bovine serum, 100 units per millilitre (U/mL) penicillin, 0.1 mg/mL streptomycin, and 0.25 microgram per millilitre (μg/mL) amphotericin B at 37 degrees Celsius in a humidified 95% air/5% CO2 incubator. Drug treatment was done 24 hours after seeding. Cells were harvested 48 hours later and melanin content and tyrosinase activity determined in triplicate. NHEM cells were cultured in DMEM containing 10% fetal bovine serum, 100 units per milliliter (U/mL) penicillin, 0.1 mg/mL streptomycin, and 0.25 microgram per millilitre (μg/mL) amphotericin B at 37 degrees Celsius in a humidified 95% air/5% CO2 incubator. Drug treatment was done 24 hours after seeding. Cells were harvested 48 hours later and melanin content and tyrosinase activity determined in triplicate.
(§2) IS103 was dissolved in water for injection or DMSO to prepare stock solution of about 50 mg/ml. The stock solution was used for preparation of subsequent dilutions in solvent to achieve working dilutions for treatment ranging 0.1 μg/ml to 1000 μg/ml.
(§3) Tyrosinase activity was determined using L-DOPA as a substrate. Briefly, B16F10 and NHEM cells were seeded in a 6-well plate (2×10^4 cells/well) and incubated for overnight. The cells were then treated with or without the test compounds for 46 hours and were washed twice with ice cold PBS and extracted by sonication in 100 μl of 0.1M Tris-HCl buffer (pH 7.2) containing 1% Nonidet P-40, 0.01% SDS, 100 μM phenyl methyl sulfonyl fluoride, and 1 μg/ml aprotinin and then centrifuged at 10,000 g for about 10 minutes at 4° C. The supernatants collected were used for enzyme assay and its protein content was estimated by method of Bradford using BSA as standard. Samples of cell extract supernatant were incubated in duplicate for 1 hour at 37° C. in 1 ml of 0.1M sodium phosphate buffer (pH 7.4) containing 0.1% L-DOPA. The absorbance was then monitored at 450 nm and compared with purified mushroom tyrosinase (Sigma). The standard curve was prepared limiting linearity within the range of experimental value.

[2] = system: NHEM cells; experiment: Melanin content assay in NHEM cells; format: cell-based, Human; details: NHEM CELLS
Protocol: as §1, §2
(§4) Cells were seeded in a 6-well plate (2×10^4 cells/well) and incubated overnight to allow the cells to adhere. After treating with various test samples for 4 or 5 days, cells were washed with phosphate-buffered saline (PBS), trypsinized, counted, and then lysed in 1 N NaOH at 100° C. for about 1 hour. The melanin content in each sample was calculated by comparison of absorbance at 400 nm of unknown samples with a standard curve obtained using synthetic melanin. IS103 enhances melanin synthesis in a dose dependent manner without significant toxicity. B16F10 and NHEM cells were treated with different concentrations of IS103 ranging from 0.1 to 1000 μg/ml and analysed melanin contents in cells. It was observed that IS103 was able to enhance pigmentation of B16F10 and NHEM cells in a dose-dependent manner (Table 18 and FIGS. 4 and 5). […] To assess the toxicity of the IS103 peptide, cell viability was analyzed by MTT assay.

[3] = system: B16F10 cells; experiment: Melanin content assay in B16F10 cells; format: cell-based; details: B16F10 CELLS; 100 μM
Protocol: as §1, §2
as §4, with “IS103 enhances melanin synthesis in a dose dependent manner without significant toxicity.” left out, “cells.” for “cells. It was observed that IS103 was able to enhance pigmentation of B16F10 and NHEM cells in a dose-dependent manner (Table 18 and FIGS. 4 and 5).”

[4] = system: Tyrosinase; experiment: Tyrosinase activity assay (L-DOPA) in NHEM cells; format: cell-based, Human; details: for increase in Tyrosinase activity when compared to control: NHEM cells, positive control
Protocol: as §1, §2, §3

[5] = TYROSINASE ACTIVITY table, B16F10 CELLS, 100 μM
[6] = TYROSINASE ACTIVITY table, NHEM CELLS, 100 μM

Compound | increase in Tyrosinase activity when compared to control ([1]; 100 μM) | % increase in tyrosinase activity compared to control [1, 5] | Change in tyrosinase activity [1, 5] | % increase in melanin content compared to control ([2]; 100 μM) | Fold change in melanin content ([2]; 100 μM) | % increase in melanin content compared to control [3] | Fold change in melanin content [3] | increase in Tyrosinase activity when compared to control ([4]; 100 μM) | % increase in tyrosinase activity compared to control [4, 6] | Tyrosinase activity [4, 6] | increase in Tyrosinase activity when compared to control ([1]; 100 nM) | % increase in tyrosinase activity compared to control ([1]; TYROSINASE ACTIVITY table, B16F10 CELLS, 100 nM) | % increase in melanin content compared to control ([2]; 100 nM) | increase in Tyrosinase activity when compared to control ([4]; 100 nM) | % increase in tyrosinase activity compared to control ([4]; TYROSINASE ACTIVITY table, NHEM CELLS, 100 nM)
CC(C)Cn1c(=O)n(C)c(=O)c2[nH]cnc21 [IBMX, 3-isobutyl-1-methylxanthine, reference compound] | 59% | 59% | 74.0 ± 5.10 | 160% | 2.6 ± 0.20 | 180% | 2.8 ± 0.20 | 56% | 56% | 70.3 ± 4.20 | – | – | – | – | –
α-Melanocyte Stimulating Hormone [α-MSH, reference compound] | – | – | – | – | – | – | – | – | – | – | 57.33% | 57.33% | 190% | 56.33% | 56.33%
